Experimental data published in ChEMBL document CHEMBL3885861, “Open TG-GATES”.

Species on record: Rattus norvegicus
Assay: Open TG-GATES - Regimen: Daily Repeat
Type: toxicity, organism-based, Sprague-Dawley
Design: regimen Daily Repeat, gender Male, age 6 weeks
Conditions: in vivo, po, route gavage; for Bas / Eos / Hb / Ht / Lym / MCH / MCHC / MCV / Mono / Neu / Plat / RBC / Ret / WBC: tissue Blood; for KIDNEY_L / KIDNEY_R / KIDNEY_TOTAL: tissue Kidney; for LIVER: tissue Liver; for A/G / ALP / ALT / AST / BUN / CRE / Ca / Cl / DBIL / GLC / IP / K / LDH / Na / PL / RALB / TBIL / TC / TG / TP / gamma-GTP: tissue Plasma
[1] = 1000 mg/kg, 72 h, dose level Middle, time 3 day
[2] = 1000 mg/kg, […], dose level Middle, time 7 day
[3] = 1000 mg/kg, […], dose level Middle, time 14 day
[4] = 1000 mg/kg, […], dose level Middle, time 28 day
[5] = 2000 mg/kg, 72 h, dose level High, time 3 day
[6] = 2000 mg/kg, […], dose level High, time 7 day
[7] = 2000 mg/kg, […], dose level High, time 14 day
[8] = 2000 mg/kg, […], dose level High, time 28 day

## CC(N)=O [ACETAMIDE]
[1]
  TERMINAL_BW: 241.7 g
  Bas: 0%
  Eos: 0.6%
  Hb: 12.4 g/dL
  Ht: 38.2%
  Lym: 75.6%
  MCH: 20.1 pg
  MCHC: 32.4%
  MCV: 62 fL
  Mono: 3.8%
  Neu: 19%
  Plat: 119 x10_4/uL
  RBC: 617.4 x10_4/ul
  Ret: 7.8%
  WBC: 118.5 x10_2/uL
  KIDNEY_L: 1 g
  KIDNEY_R: 1 g
  KIDNEY_TOTAL: 2 g
  LIVER: 11.3 g
  A/G: 1
  ALP: 1645.6 IU/L
  ALT: 50.4 IU/L
  AST: 84 IU/L
  BUN: 17.2 mg/dL
  CRE: 0.1 mg/dL
  Ca: 10.9 mg/dL
  Cl: 104.4 meq/L
  DBIL: 0 mg/dL
  GLC: 186 mg/dL
  IP: 6.7 mg/dL
  K: 4.4 meq/L
  LDH: 228.8 IU/L
  Na: 140.3 meq/L
  PL: 161.8 mg/dL
  RALB: 2.8 g/dL
  TBIL: 0.004 mg/dL
  TC: 82.2 mg/dL
  TG: 130.3 mg/dL
  TP: 5.6 g/dL
  gamma-GTP: 0.9 IU/L
[2]
  TERMINAL_BW: 269.7 g
  Bas: 0%
  Eos: 0.8%
  Hb: 13 g/dL
  Ht: 39.6%
  Lym: 79.2%
  MCH: 20 pg
  MCHC: 32.8%
  MCV: 60.8 fL
  Mono: 2.4%
  Neu: 17.2%
  Plat: 113.6 x10_4/uL
  RBC: 650.4 x10_4/ul
  Ret: 6.5%
  WBC: 128.6 x10_2/uL
  KIDNEY_L: 1.2 g
  KIDNEY_R: 1.2 g
  KIDNEY_TOTAL: 2.4 g
  LIVER: 11.7 g
  A/G: 1
  ALP: 2048.4 IU/L
  ALT: 47.4 IU/L
  AST: 87.2 IU/L
  BUN: 16 mg/dL
  CRE: 0.1 mg/dL
  Ca: 10.7 mg/dL
  Cl: 104.7 meq/L
  DBIL: 0 mg/dL
  GLC: 186.2 mg/dL
  IP: 6.4 mg/dL
  K: 4.2 meq/L
  LDH: 199 IU/L
  Na: 142.7 meq/L
  PL: 168 mg/dL
  RALB: 2.8 g/dL
  TBIL: 0 mg/dL
  TC: 83.6 mg/dL
  TG: 141.4 mg/dL
  TP: 5.7 g/dL
  gamma-GTP: 0.7 IU/L
[3]
  TERMINAL_BW: 332.5 g
  Bas: 0%
  Eos: 1%
  Hb: 13.3 g/dL
  Ht: 39.8%
  Lym: 81%
  MCH: 19.7 pg
  MCHC: 33.4%
  MCV: 59.2 fL
  Mono: 2.8%
  Neu: 14.2%
  Plat: 118.6 x10_4/uL
  RBC: 672.6 x10_4/ul
  Ret: 4.8%
  WBC: 106.1 x10_2/uL
  KIDNEY_L: 1.3 g
  KIDNEY_R: 1.4 g
  KIDNEY_TOTAL: 2.7 g
  LIVER: 14 g
  A/G: 0.9
  ALP: 1740 IU/L
  ALT: 43.8 IU/L
  AST: 79.2 IU/L
  BUN: 18.4 mg/dL
  CRE: 0.2 mg/dL
  Ca: 10.5 mg/dL
  Cl: 104.6 meq/L
  DBIL: 0 mg/dL
  GLC: 180.8 mg/dL
  IP: 6.4 mg/dL
  K: 4.3 meq/L
  LDH: 285.4 IU/L
  Na: 142.1 meq/L
  PL: 153.6 mg/dL
  RALB: 2.8 g/dL
  TBIL: 0.002 mg/dL
  TC: 83 mg/dL
  TG: 135.3 mg/dL
  TP: 5.7 g/dL
  gamma-GTP: 0.7 IU/L
[4]
  TERMINAL_BW: 409 g
  Bas: 0%
  Eos: 1%
  Hb: 14.5 g/dL
  Ht: 43.1%
  Lym: 81.6%
  MCH: 18.9 pg
  MCHC: 33.7%
  MCV: 56.2 fL
  Mono: 2.4%
  Neu: 14.4%
  Plat: 93.5 x10_4/uL
  RBC: 767.8 x10_4/ul
  Ret: 2.8%
  WBC: 140.9 x10_2/uL
  KIDNEY_L: 1.6 g
  KIDNEY_R: 1.6 g
  KIDNEY_TOTAL: 3.1 g
  LIVER: 15.5 g
  A/G: 0.9
  ALP: 1250.4 IU/L
  ALT: 48.6 IU/L
  AST: 81 IU/L
  BUN: 16.8 mg/dL
  CRE: 0.2 mg/dL
  Ca: 10.3 mg/dL
  Cl: 103.7 meq/L
  DBIL: 0.006 mg/dL
  GLC: 197.2 mg/dL
  IP: 5.2 mg/dL
  K: 4 meq/L
  LDH: 207 IU/L
  Na: 142 meq/L
  PL: 148.2 mg/dL
  RALB: 2.8 g/dL
  TBIL: 0.006 mg/dL
  TC: 75.2 mg/dL
  TG: 122 mg/dL
  TP: 6.1 g/dL
  gamma-GTP: 0.9 IU/L
[5]
  TERMINAL_BW: 234.1 g
  Bas: 0%
  Eos: 0.4%
  Hb: 13 g/dL
  Ht: 40%
  Lym: 78%
  MCH: 20.1 pg
  MCHC: 32.6%
  MCV: 61.7 fL
  Mono: 5.2%
  Neu: 14.4%
  Plat: 119.8 x10_4/uL
  RBC: 647.8 x10_4/ul
  Ret: 7.6%
  WBC: 106.6 x10_2/uL
  KIDNEY_L: 1.1 g
  KIDNEY_R: 1.1 g
  KIDNEY_TOTAL: 2.2 g
  LIVER: 10.9 g
  A/G: 1
  ALP: 1650 IU/L
  ALT: 60.6 IU/L
  AST: 95.2 IU/L
  BUN: 18.4 mg/dL
  CRE: 0.1 mg/dL
  Ca: 10.9 mg/dL
  Cl: 103.7 meq/L
  DBIL: 0.006 mg/dL
  GLC: 187.4 mg/dL
  IP: 7.5 mg/dL
  K: 4.2 meq/L
  LDH: 200.2 IU/L
  Na: 140.6 meq/L
  PL: 160.4 mg/dL
  RALB: 2.8 g/dL
  TBIL: 0.014 mg/dL
  TC: 79.2 mg/dL
  TG: 94.6 mg/dL
  TP: 5.5 g/dL
  gamma-GTP: 1 IU/L
[6]
  TERMINAL_BW: 255.2 g
  Bas: 0%
  Eos: 1%
  Hb: 13.7 g/dL
  Ht: 41.1%
  Lym: 78.2%
  MCH: 19.5 pg
  MCHC: 33.4%
  MCV: 58.4 fL
  Mono: 4%
  Neu: 15.2%
  Plat: 89.2 x10_4/uL
  RBC: 704.6 x10_4/ul
  Ret: 4.4%
  WBC: 108.9 x10_2/uL
  KIDNEY_L: 1.1 g
  KIDNEY_R: 1.1 g
  KIDNEY_TOTAL: 2.3 g
  LIVER: 10.6 g
  A/G: 1
  ALP: 2391.2 IU/L
  ALT: 74.6 IU/L
  AST: 114.4 IU/L
  BUN: 18.5 mg/dL
  CRE: 0.2 mg/dL
  Ca: 10.5 mg/dL
  Cl: 103.1 meq/L
  DBIL: 0.02 mg/dL
  GLC: 194.8 mg/dL
  IP: 5.9 mg/dL
  K: 4.2 meq/L
  LDH: 251.2 IU/L
  Na: 141.3 meq/L
  PL: 170.8 mg/dL
  RALB: 2.8 g/dL
  TBIL: 0.028 mg/dL
  TC: 89.8 mg/dL
  TG: 94 mg/dL
  TP: 5.6 g/dL
  gamma-GTP: 1.1 IU/L
[7]
  TERMINAL_BW: 310 g
  Bas: 0%
  Eos: 0.4%
  Hb: 14 g/dL
  Ht: 41.6%
  Lym: 84.8%
  MCH: 19.6 pg
  MCHC: 33.6%
  MCV: 58.2 fL
  Mono: 2.4%
  Neu: 10.6%
  Plat: 101.3 x10_4/uL
  RBC: 713.8 x10_4/ul
  Ret: 4.1%
  WBC: 156.4 x10_2/uL
  KIDNEY_L: 1.3 g
  KIDNEY_R: 1.3 g
  KIDNEY_TOTAL: 2.6 g
  LIVER: 11.7 g
  A/G: 0.9
  ALP: 1866.6 IU/L
  ALT: 90.6 IU/L
  AST: 159.8 IU/L
  BUN: 17.1 mg/dL
  CRE: 0.2 mg/dL
  Ca: 10.1 mg/dL
  Cl: 103.9 meq/L
  DBIL: 0.054 mg/dL
  GLC: 187.8 mg/dL
  IP: 6 mg/dL
  K: 4.2 meq/L
  LDH: 232.2 IU/L
  Na: 141.6 meq/L
  PL: 156.2 mg/dL
  RALB: 2.7 g/dL
  TBIL: 0.07 mg/dL
  TC: 87.2 mg/dL
  TG: 77.7 mg/dL
  TP: 5.5 g/dL
  gamma-GTP: 1.6 IU/L
[8]
  TERMINAL_BW: 403 g
  Bas: 0%
  Eos: 0.8%
  Hb: 14.8 g/dL
  Ht: 44%
  Lym: 78.8%
  MCH: 19.4 pg
  MCHC: 33.8%
  MCV: 57.6 fL
  Mono: 3%
  Neu: 15.6%
  Plat: 88.6 x10_4/uL
  RBC: 763.8 x10_4/ul
  Ret: 2.6%
  WBC: 121.1 x10_2/uL
  KIDNEY_L: 1.5 g
  KIDNEY_R: 1.6 g
  KIDNEY_TOTAL: 3.1 g
  LIVER: 14.4 g
  A/G: 0.9
  ALP: 1427.6 IU/L
  ALT: 55.6 IU/L
  AST: 87.4 IU/L
  BUN: 18 mg/dL
  CRE: 0.2 mg/dL
  Ca: 10.2 mg/dL
  Cl: 104.2 meq/L
  DBIL: 0.01 mg/dL
  GLC: 199 mg/dL
  IP: 5.3 mg/dL
  K: 4.1 meq/L
  LDH: 286.2 IU/L
  Na: 141.9 meq/L
  PL: 136.2 mg/dL
  RALB: 2.8 g/dL
  TBIL: 0.01 mg/dL
  TC: 65.8 mg/dL
  TG: 102.2 mg/dL
  TP: 6 g/dL
  gamma-GTP: 0.8 IU/L
